In patent publication US20150087616A1, “PREBIOTIC FORMULATIONS AND METHODS OF USE” (RITTER PHARMACEUTICALS, INC., priority 2011, published 2015):

Tested on: Bifidobacterium species
Experiment: Comparative growth of Bifidobacterium species in scratch MRS with 2% carbohydrate
Type: cell-based
Details: five (four) Bifidobacterium species; scratch MRS + 2% carbohydrate
Protocol: The objective of the study was to determine the ability of various Bifidobacterium species and strains to grow on galactooligosaccharides.
The growth of Lactobacillus and Bifidobacterium strains was evaluated in scratch MRS (Table 16) supplemented with 2% of a carbohydrate solution. The carbohydrates used in the experiments were: Glucose—Fisher; Lactose—Fisher; GOS1—95% GOS purity from Inalco SPA—Provided by Ritter Pharmaceuticals; GOS2—90% GOS purity from GTC—provided by Ritter Pharmaceuticals.
Carbohydrate stock solutions were filter sterilized and then added to either a scratch MRS formulation (Table 16), or a semisynthetic medium (Table 17).
Lactobacillus and Bifidobacterium cultures were propagated in MRS broth overnight, and then transferred once through the test medium. For growth experiments, cultures were inoculated into the MRS scratch medium containing one of the 4 carbohydrates to be examined Growth was monitored either: **automatically, using a FLUOStar OPTIMA microtiter plate reader to monitor the change in absorbance (A600) as a function of the time. The strains were incubated at 37 C aerobically for these experiments; or ** manually, using a standard spectrophotometer to monitor the change in OD600 nm over time, in 5 ml liquid culture tubes. These cultures were incubated anaerobically at 37° C. in a COY anaerobic chamber, flushed with anaerobic gas. […]

Structure (SMILES): OC[C@H]1O[C@@H](O[C@H]2[C@H](O)[C@@H](O)C(O)O[C@@H]2CO)[C@H](O)[C@@H](O)[C@H]1O (stereo partly shown) [lactose, Lactose]
- comparative growth on four carbohydrate sources (glucose, lactose, GOS1, GOS2): none of the Bifidobacterium strains used in these experiments grew
